Data on two molecules can be found in paper PMC11589483, “Preparation and anti-colon cancer effect of a novel curcumin analogue (CA8): in vivo and in vitro evaluation” (Frontiers in Pharmacology, 2024).

Data set [1] concerns Caco-2 cells. In words: Cell cycle analysis (flow cytometry). The class given is cell-based, human. The settings on record: 4, 8, 16 μM, 24 h. As to the method:
Caco-2 cells treated with CA8 at dose of 4, 8, or 16 μM/L for 24 h, they were collected, washed with PBS, and fixed in 70% ethanol overnight. The fixed cells were washed twice with PBS, treated with RNase A (10 mg/mL) and resuspended in 50 μg/mL propidium iodide for staining. Finally, the cell cycle distribution was assessed via flow cytometry (BD Biosciences, CA).

Data set [2] has as its system normal human liver cell line LO2. In words: MTT assay, normal liver cells LO2. The class given is cell-based. The procedure: (§1) The human cancer cell lines A549, HepG2, MCF-7, Caco-2, and HeLa and the normal human liver cell line LO2 were all obtained from Shanghai Cell Bank of China. All cells were cultured in RPMI 1640 or DMEM supplemented with 10% fetal bovine serum, 100 U/mL penicillin, and 100 μg/mL streptomycin and incubated at 37°C under 5% CO2 (HEPA incubator class100 Thermo company). The medium was replaced three times a week. Cells used in all were in the exponential growth phase.
(§2) The cell inhibition rate was evaluated using the MTT assay. Briefly, cells were seeded in a 96-well plate at a density of 3–4 × 10^3 cells per well and incubated at 37°C for 24 h. The MCACs to be tested were dissolved in dimethyl sulfoxide (DMSO, Merck, Germany) and diluted to five concentrations (3.75, 7.5, 15, 30, 60 μM/L) with RPMI 1640 medium, with each dose analyzed in quadruplicate. The concentration of DMSO was always maintained below 1‰, a concentration that is nontoxic to cells. After incubation for 24 or 48 h, MTT reagent (5 mg/mL) was added to each well and the samples were incubated for 3 h at 37°C in the dark. The absorbance of formazan crystals dissolved in 150 µL of DMSO was measured at 570 nm using a microplate reader to identify the cytotoxic effect of the analogues.

In data set [3] the test system is Caco-2 xenograft tumors. In words: In vivo anticancer activity, Caco-2 xenograft. The settings on record: Caco-2 xenograft; CA8 100 mg/kg, CU 100 mg/kg, tegafur 50 mg/kg, gavage every other day. As to the method: Twenty 5-week-old male BALB nude mice purchased from SPF (Beijing) Biotechnology Co., Ltd. were used for the in vivo pharmacodynamic experiment of CA8. Caco-2 cells (6 × 10^6 cells in 100 μL PBS) were harvested and subcutaneously injected into the right hip of the mice. Then, they were divided into four groups when the tumor volume reached 100 mm^3 and treated with saline, CU (100 mg/kg), tegafur (50 mg/kg), or CA8 (100 mg/kg) via gavage every other day. Tumor size and body weight were measured and recorded every other day. At the end of the experiment, the mice were sacrificed and tumors were harvested and weighed. Tumor volumes were calculated by measuring length (L) and width (W) according to the following formula: V = 0.5 × L × W^2. The tumor tissue was embedded in paraffin, cut into slices, stained with HE, and observed under a light microscope.

For data set [4], the system named is AKT, JNK, and NF-κB signaling pathways and apoptosis-related proteins. In words: Western blot of signaling and apoptosis proteins in Caco-2 cells. The class given is cell-based, human. The settings on record: Caco-2, 4, 8, 16 μM, 24 h, vs control. The procedure:
The expression of apoptotic proteins and pathways was detected using western blot. Caco-2 cells treated with CA8 at a dose of 4, 8, or 16 μM/L for 24 h were collected and lysed with RIPA lysis buffer for 10 min. The concentration of total proteins was determined using a BCA protein quantitative kit. Total proteins were separated on an SDS-PAGE gel, transferred to PVDF membranes and incubated with 5% skim milk for 2 h. Subsequently, the PVDF membranes were incubated with primary antibodies (AKT 1:2000; Bcl-2 1:2000; Bax 1:5000; caspase-3 1:2,000; caspase-9 1:1000; P-AKT 1:1000; JNK 1:1000; P-JNK 1:1000; IKBα 1:2000; and β-actin 1:100000) at 4°C overnight. The membranes were rinsed three times with TBST and incubated with secondary antibodies (1:5000 dilution) for 2–3 h at room temperature. Finally, proteins were visualized using an ECL chemiluminescent kit (KF001, affinity). In the final step, the ImageJ software was used to analyze the results.

Data set [5] has as its system Caco-2 cells. In words: Clonogenic assay. The class given is cell-based, human. Particulars: 4, 8, or 16 μM/L, 6 h exposure. As to the method: Caco-2 cells were seeded into a 6-well plate at a density of 1 × 10^3 cells per well and incubated overnight. Then, the medium was replaced, and CA8 was added at the prescribed concentrations (4, 8, or 16 μM/L). After 6 h, the drug-containing medium was replaced with RPMI 1640 medium.
Caco-2 cells in 6-well plates were incubated for 1–2 weeks until the appearance of the colonies, followed by staining with crystal violet and incubation for 1 h at room temperature. After staining, images were captured accordingly.

The subject of data set [6] is breast cancer cells MCF-7. As to the kind of experiment: MTT antiproliferative assay, MCF-7. Particulars: Homo sapiens. The class given is cell-based. The procedure: as §1, §2
Data set [7] relates to lung cancer cells A549. In words: MTT antiproliferative assay, A549. The class given is cell-based. The settings on record: Homo sapiens. The procedure:
as §1, §2

Data set [8] relates to colon cancer cells Caco-2. In words: MTT antiproliferative assay, Caco-2. The class given is cell-based, human. The settings on record: for IC50: Homo sapiens, read-out: IC50 Caco2. The procedure: as §1, §2
Data set [9] is described as follows: Solubility in water by HPLC. The class given is physicochemical. Particulars: 25°C, mass of solute dissolved at saturation in 100 g of solvent. The procedure: The solubility of the synthesized compounds in water was determined using high performance liquid chromatography (HPLC). First, 1.000 g of each compound was accurately weighed, placed in 100 g of water, and stirred at 25°C for a period of time. Then, the reaction system was allowed to stand for 1 h. The supernatant was quantitatively taken, diluted with methanol to volume, and centrifuged, and the solubility was determined using HPLC.

Data set [10] has as its system Caco-2 cells. In words: Apoptosis assay (Annexin V-FITC/propidium iodide flow cytometry). The class given is cell-based, human. The settings on record: 4, 8, 16 μM, 24 h. The procedure:
The apoptotic effect of CA8 was assessed in Caco-2 cells according to the kit instructions. First, Caco-2 cells were treated with CA8 at dose of 4, 8, or 16 μM/L for 24 h. The cells were harvested and suspended in 500 μL annexin-binding buffer. Subsequently, the cells were stained with Annexin V-FITC for 15 min and then incubated with propidium iodide for 5 min at room temperature in the dark. Finally, all samples were evaluated via flow cytometry (FACS Calibur, BD, San Jose, CA, United States). The results obtained were analyzed using the FlowJo software, and the apoptotic rate was calculated.

The test system of data set [11] is cervical cancer cells HeLa. In words: MTT antiproliferative assay, HeLa. The class given is cell-based. Particulars: Homo sapiens. As to the method:
as §1, §2

Data set [12] has as its system liver cancer cells HepG2. As to the kind of experiment: MTT antiproliferative assay, HepG2. The class given is cell-based. Particulars: Homo sapiens. The procedure:
as §1, §2

The nature of data set [13]: Pharmacokinetics evaluation after gavage. The settings on record: SD rats. The class given is in vivo, Sprague Dawley (SD) rats. The procedure:
After the evaluation of the safety of CA8, 10 male Sprague Dawley (SD) rats were randomly divided into the CA8 and CU groups for the pharmacokinetic test ([Ye et al., 2020]). The rats were subjected to 1 week of adaptation and were fasted for 6 h before the experiment. CA8 (50 mg kg^−1) and CU (50 mg kg^−1) were administered via gavage. Blood samples were collected at 0.03, 0.08, 0.16, 0.25, 0.5, 1, 2, 4, 8 and 12 h and centrifuged at 5,000 rpm for 3 min to obtain the plasma. A mixture of ethyl acetate and methanol was then added to precipitate the proteins and separate the CA8 and CU from the plasma. The samples were then analyzed using HPLC.

On the set-up of data set [14]: method as in Al-Hujaily et al., 2011. The settings on record: ref Al-Hujaily et al., 2011; cited from earlier work.

Like-named read-outs stand apart in the source and are kept apart here.

Turning to `COc1cc(/C=C/C(=O)CC(=O)/C=C/c2ccc(O)c(OC)c2)ccc1O` [CU, Curcumin], the “cell cycle arrest” value in data set [1] is listed as “induced S-phase arrest only to a lesser extent”. Besides, the IC50 in data set [2] (24 h) was above 60 µM; in data set [2] (48 h), 27.6 ± 1.36 µM; in data set [6] (MCF7, 24 h) it was 40 ± 2.7 µM; in data set [6] (MCF7, 48 h), 22.3 ± 1.6 µM; in data set [7] (A549, 24 h) it was 37.2 ± 2.9 µM; in data set [7] (A549, 48 h), 34.4 ± 1.5 µM. The IC50 in data set [8] (Caco-2, 24 h) is above 60 µM; in [8] (Caco-2, 48 h) it was 33 ± 2.1 µM; in [11] (24 h), 58.3 ± 2.2 µM; in [11] (48 h), 17.3 ± 0.8 µM; in data set [12] (HepG2, 24 h), 43.4 ± 2.9 µM; in [12] (HepG2, 48 h), 27.4 ± 0.3 µM. Besides, the “inhibitory effect on tumor growth” value in data set [3] is “CA8 > tegafur > CU”. In [4], the “expression of P-AKT” value is listed as “inhibited the expression of P-AKT”. Moreover, the “expression of P-JNK and IκBα” value in data set [4] was “induced the expression of P-JNK and IκBα in a concentration-dependent manner”. Moreover, the “Caco-2 colony formation” value in data set [5] is “did not have a significant inhibitory effect”. The “SI Caco2” value in [8] (48 h, logarithm of ratio IC50 LO2 / IC50 cancer cells) is recorded as −0.08. The Solubility in data set [9] stood at 0.00017 mg/100g. For the same molecule, the “induction of apoptosis” value in data set [10] is “induced early and late apoptosis in a concentration-dependent manner”. For the same molecule, in data set [13] (oral 50 mg kg^−1), the “time after dosing until cleared from / still detected in plasma” value came to 2 h. Further, the “AUC(0-t)” value in data set [13] (oral (gavage) 50 mg kg^−1) is 35,697.63 μg/L*min. The molecule also registered a CLz in data set [13] (oral (gavage) 50 mg kg^−1) of 0.90 L/min/kg. Also, the Tmax in data set [13] (oral (gavage) 50 mg kg^−1) is reported as 30.00 min. The molecule further yielded a Vz in [13] (oral (gavage) 50 mg kg^−1) of 97.58 L/kg. This molecule came in with a maximum concentration (Cmax) in data set [13] (male, Sprague Dawley, rat, plasma, oral (gavage) 50 mg kg^−1) of 380 ng/mL. The MRT last in data set [13] (male, Sprague Dawley, rat, plasma, oral (gavage) 50 mg kg^−1, read-out: MRT(0-t) (converted)) is 54 min. The half-life in data set [13] (male, Sprague Dawley, rat, plasma, oral (gavage) 50 mg kg^−1, read-out: t1/2z) came out at 74.8 min.

Take `COc1cc(C=C2CN(C)CC(=Cc3ccc(O)c(OC)c3)C2=O)ccc1O` [PAC]: in data set [14], the “solubility in water, times that of CU” value was 27 times.
